Test results from patent US20030215899A1, “Reversible oxidation of protein tyrosine phosphatases” (CEPTYR, Inc., priority 2002, published 2003).

Columns and labels:
PTPs in Rat-1 cells = test: modified in-gel PTP activity assay of Rat-1 cell lysates; format: cell-based; conditions: for inactivation (oxidation) of PTPs in cells: 200 μM
Description: To determine whether ROS stimulated intracellular tyrosine phosphorylation through the oxidation and inhibition of cellular PTPs, a modified in-gel PTP activity assay was devised, as follows: As substrate, poly (4:1) Glu-Tyr (Sigma) was labeled with [γ-^32P]-ATP using the GST-FER fusion PTK, as described previously (Shen et al., 1998 J. Biol. Chem. 273:6474-81). The labeled substrates were used within three weeks to limit the variation of its specific activity from experiment to experiment. The lysis buffer (25 mM CH3COONa, 1% NP-40, 150 mM NaCl, 10% glycerol, pH 5.5) was degassed at 4° C. for overnight, before catalase and superoxide dismutase (both 100 μg/ml), protease inhibitors and 10 mM iodoacetic acid (IAA) were added. Following stimulation, cells were lysed under anaerobic conditions in an argon chamber. Lysates (25 μg) were processed as described herein and an “in-gel” phosphatase assay (Burridge and Nelson, 1995) was conducted using SDS-PAGE gels containing a radioactively-labeled substrate (1.5×10^6 cpm/20 ml gel solution, approximately 2 μM p-Tyr).
Cells were triggered with the appropriate stimulus and harvested under anaerobic conditions in lysis buffer containing IAA. Those PTPs that had not encountered ROS in the cell became irreversibly inactivated by alkylation of their active site Cys with IAA. However, in contrast, any PTPs in which the active site Cys had been oxidized in response to the stimulus were resistant to alkylation. For the “in-gel” phosphatase assay, a 10% SDS-PAGE gel was cast containing a radioactively-labeled substrate. An aliquot of cell lysate was subjected to SDS-PAGE and proteins in the gel were sequentially denatured, then renatured in the presence of reducing reagents. […] The reaction was then terminated by fixing, staining and destaining the gel. Finally the gel was dried and exposed to film. The presence of a PTP was visualized by substrate dephosphorylation, as the appearance of a clear, white area on the black background of labeled substrate.

[1] = test system: tyrosine phosphorylation of cellular proteins in Rat-1 cells; test: immunoprecipitation (PT-66) and anti-pTyr (G104) immunoblot of tyrosine phosphorylated proteins; format: cell-based; conditions: for tyrosine phosphorylation of cellular proteins: 200 μM
Description: (§1) For immunoprecipitation, cells were rinsed with ice-cold PBS, then lysed in ice-cold 20 mM Hepes (pH 7.5), 1% NP-40, 150 mM NaCl, 10% glycerol, 200 μM […] and protease inhibitors (25 μg/ml of aprotinin and leupeptin). […] The anti-pTyr antibody G104 was described previously (Garton et al., 1997 Oncogene 15, 877-885). Anti-PDGFRββ antibody (Ab-X) was a gift from Dr. Daniel DiMaio at Yale University (Irusta and DiMaio, 1998 EMBO J. 17, 6912-6923). Anti-human G-CSF receptor (G-CSFR) antibody was provided by Dr. Toshio Hirano at Osaka University, Japan (Fukada et al., 1996 Immunity 5, 449-460). Lysate (400 μg) was incubated with 5 μg of antibody conjugated to protein A/G-Sepharose (Amersham Pharmacia, Arlington Heights, Ill.) for 2 hours at 4° C. For immunoblotting, aliquots of total lysates (30 μg per sample) or immunoprecipitates were subjected to SDS-PAGE and transferred to nitrocellulose filters, which were incubated with appropriate primary and secondary antibodies and the specific signals were visualized by the ECL detection system (Amersham Pharmacia).

SHP-2 (E76A mutant) = SHP-2 (E76A mutant) (Homo sapiens, UniProt Q06124, E76A); format: biochemical; conditions: for protection of SHP-2 from alkylation by IAA: 37° C. 5 mins, then 4 mM IAA
MAPK = test: anti-phospho-MAPK / anti-MAPK immunoblot; format: cell-based, Rat; conditions: for activation of MAPKs (mitogenic signaling): 200 μM
Description: as §1

[2] = test system: intracellular ROS in Rat-1 cells; test: ROS-induced DCF fluorescence (microscopy, flow cytometry); format: cell-based; conditions: for DCF fluorescence by fluorescence microscopy: 20 μM H2DCFDA preload, 200 μM, 5 mins; for shift of DCF fluorescence by flow cytometry, H2O2 versus t-BHP: 200 μM each
Description: The effects of H2O2 and t-BHP on inactivation of PTPs and activation of MAPK signaling pathways were next compared in a cellular context. Intracellular ROS were measured using 2′,7′-dichlorofluorescein diacetate (H2DCFDA) and 5-(and-6)-chloromethyl-2′,7′-dichlorodihydrofluorescein diacetate (CM-H2DCFDA) (all fluorescent ROS indicators from Molecular Probes, Eugene, Oreg.) either by fluorescence microscopy, using a Zeiss Axiovert 405M inverted microscope equipped with a fluorescence attachment and digital camera, or by cell sorting, using a FACSCalibur System ([…].), according to the manufacturer's recommendations. Rat-1 cells were pre-loaded with 20 μM H2DCFDA in the dark for 20 mins, then exposed to H2O2 and t-BHP (both 200 μM) for 5 mins. Images of ROS-induced DCF fluorescence are shown at magnification 400× (FIG. 3B upper panel). Cells (1×10^5) that underwent the same treatment as above were harvested and resuspended in Hanks' solution, then immediately subjected to flow cytometric analysis to measure ROS-induced DCF fluorescence. The basal peak indicates background fluorescence, whereas the rightward shifted peak indicates ROS-induced DCF fluorescence (FIG. 3B, lower panels). […] Cells were exposed to H2O2 and t-BHP (each at 200 μM) for the indicated times, lysed in the presence of 10 mM IAA and oxidized PTPs were visualized in the in-gel PTP activity assay.
Rat-1 cells were incubated with 20 μM CM-H2DCFDA in the dark for 20 mins, then exposed to peptide growth factors (50 ng/ml) for an additional 10 mins. Images of ROS-induced DCF fluorescence are shown at 50× magnification. (FIG. 6A) The data are representative of 4 independent experiments. In FIG. 6B, Rat-1 cells were exposed to peptide growth factors for the indicated times, lysed in the presence of 10 mM IAA, and oxidized PTPs were visualized by the in-gel PTP assay. […] Aliquots of cell lysate from each treatment group were immunoblotted with anti-phospho-MAPK Ab and re-probed with anti-MAPK Ab.

Structure (SMILES) | time to essentially complete recovery (reduction) of PTPs after removal of H2O2 (PTPs in Rat-1 cells; 200 μM H2O2 for 2 minutes, no BSO) [min] | inactivation (oxidation) of PTPs in cells (PTPs in Rat-1 cells; lysis with 10 mM IAA) | H2O2 concentration sufficient to oxidize all PTPs detectable in the assay (PTPs in Rat-1 cells; 1 min exposure, serum-deprived Rat-1 cells) [µM] | time to oxidation of active site Cys of various PTPs (PTPs in Rat-1 cells; H2O2 added to culture media, lysis with 10 mM IAA) [min] | tyrosine phosphorylation of cellular proteins [1] | tyrosine phosphorylation of proteins of 120 kDa and 70 kDa ([1]; various concentrations of H2O2) | irreversible oxidation of SHP-2 (SHP-2 (E76A mutant); 2 mM H2O2) | protection of SHP-2 from alkylation by IAA (SHP-2 (E76A mutant)) | activation of MAPKs (mitogenic signaling) (MAPK) | phosphorylation of ERK MAP kinases (MAPK; H2O2-treated Rat-1 cells) | DCF fluorescence by fluorescence microscopy [2] | shift of DCF fluorescence by flow cytometry, H2O2 versus t-BHP [2] | oxidation and inactivation of SHP-2 in vitro (SHP-2 (E76A mutant); purified SHP-2 (E76A)) | effect on recovery of PTP activity following removal of H2O2 (PTPs in Rat-1 cells; 2.5 mM BSO 16 h, 200 μM H2O2 for 2 minutes then removed) | persistence of PTP oxidation after removal of H2O2 (PTPs in Rat-1 cells; BSO-pretreated Rat-1 cells) [min]
OO [H2O2, hydrogen peroxide] | 10 to 20 | reproducible inactivation of PTPs was detected | 200 | ≤ 1 | enhanced tyrosine phosphorylation | induced in a dose-dependent fashion | not irreversibly oxidized | protected SHP-2 from alkylation | enhanced tyrosine phosphorylation and mitogenic signaling | triggered the phosphorylation of ERK MAP kinases | led to rapid oxidation and the appearance of the fluorescent derivative, DCF | no quantitative difference was observed |  |  | 
CC(C)(C)OO [t-BHP, t-butyl hydroperoxide] |  | not in response to t-BHP |  |  | less pronounced effects on tyrosine phosphorylation |  |  | did not protect the invariant Cys residue of SHP-2 from alkylation | unable to activate MAPKs |  | led to rapid oxidation and the appearance of the fluorescent derivative, DCF | no quantitative difference was observed | unable to oxidize and inactivate SHP-2 |  | 
CCCCS(=N)(=O)CCC(N)C(=O)O [BSO, L-buthionine-SR-sulfoximine] |  |  |  |  |  |  |  |  |  |  |  |  |  | markedly attenuated the recovery of PTP activity | ≥ 30
